{"source": "PubChem BioAssay AID1963961", "about": "(Molecular Pharmacology Branch, DTP, NCI, 2024);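 further: spheroids exposed to agents for seven days before read-out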", "tested_on": "K98450-129-R-PDC multicell spheroids, viability", "test": "Anticancer human tumor K98450-129-R-PDC patient-derived colon adenocarcinoma cell line growth inhibition [PI3K]", "details": "for viability, T/C: stronger effect = lower value", "method_in_brief": "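Three cell types, namely tumor cells, endothelial cells and mesenchymal stem cells, formed each spheroid. Combinations with four PI3K inhibitors were screened at clinically achievable concentrations decreasing by half-log, and spheroid viability was recorded.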", "key": {"[1]": {"details": "curve of first compound, second compound 0.0316 µM"}, "[2]": {"details": "curve of first compound, second compound 0.1 µM"}, "[3]": {"details": "curve of first compound, second compound 0.316 µM"}, "[4]": {"details": "curve of first compound, second compound 1 µM"}, "[5]": {"details": "curve of first compound, second compound 3.16 µM"}, "[6]": {"details": "curve of first compound, second compound 10 µM"}, "[7]": {"details": "second compound 0.0316 µM, first compound 0.0316 µM"}, "[8]": {"details": "second compound 0.0316 µM, first compound 0.1 µM"}, "[9]": {"details": "second compound 0.1 µM, first compound 0.0316 µM"}, "[10]": {"details": "second compound 0.1 µM, first compound 0.1 µM"}, "[11]": {"details": "second compound 0.316 µM, first compound 0.0316 µM"}, "[12]": {"details": "second compound 0.316 µM, first compound 0.1 µM"}, "[13]": {"details": "second compound 1 µM, first compound 0.0316 µM"}, "[14]": {"details": "second compound 1 µM, first compound 0.1 µM"}, "[15]": {"details": "second compound 3.16 µM, first compound 0.0316 µM"}, "[16]": {"details": "second compound 3.16 µM, first compound 0.1 µM"}, "[17]": {"details": "second compound 10 µM, first compound 0.0316 µM"}, "[18]": {"details": "second compound 10 µM, first compound 0.1 µM"}}, "data": [{"smiles": "CC(C)n1nc(-c2ccc3oc(N)nc3c2)c2c(N)ncnc21", "note": "+ Cc1nc(NC(=O)N2CCCC2C(N)=O)sc1-c1ccnc(C(C)(C)C(F)(F)F)c1", "values": [{"measurement": "IC50", "setting": "[1]", "result": "> 0.1", "unit": "µM"}, {"measurement": "IC50", "setting": "[2]", "result": "> 0.1", "unit": "µM"}, {"measurement": "IC50", "setting": "[3]", "result": "> 0.1", "unit": "µM"}, {"measurement": "IC50", "setting": "[4]", "result": "> 0.1", "unit": "µM"}, {"measurement": "IC50", "setting": "[5]", "result": "> 0.1", "unit": "µM"}, {"measurement": "IC50", "setting": "[6]", "result": "> 0.1", "unit": "µM"}, {"measurement": "viability, T/C", "setting": "second compound 0.0316 µM, first compound 0.000316 µM", "result": 102, "unit": "%"}, {"measurement": "viability, T/C", "setting": "second compound 0.0316 µM, first compound 0.001 µM", "result": 97.8, "unit": "%"}, {"measurement": "viability, T/C", "setting": "second compound 0.0316 µM, first compound 0.00316 µM", "result": 101, "unit": "%"}, {"measurement": "viability, T/C", "setting": "second compound 0.0316 µM, first compound 0.01 µM", "result": 91.2, "unit": "%"}, {"measurement": "viability, T/C", "setting": "[7]", "result": 87.2, "unit": "%"}, {"measurement": "viability, T/C", "setting": "[8]", "result": 75.3, "unit": "%"}, {"measurement": "viability, T/C", "setting": "second compound 0.1 µM, first compound 0.000316 µM", "result": 106, "unit": "%"}, {"measurement": "viability, T/C", "setting": "second compound 0.1 µM, first compound 0.001 µM", "result": 95.3, "unit": "%"}, {"measurement": "viability, T/C", "setting": "second compound 0.1 µM, first compound 0.00316 µM", "result": 99.5, "unit": "%"}, {"measurement": "viability, T/C", "setting": "second compound 0.1 µM, first compound 0.01 µM", "result": 91, "unit": "%"}, {"measurement": "viability, T/C", "setting": "[9]", "result": 88.8, "unit": "%"}, {"measurement": "viability, T/C", "setting": "[10]", "result": 79.9, "unit": "%"}, {"measurement": "viability, T/C", "setting": "second compound 0.316 µM, first compound 0.000316 µM", "result": 95.8, "unit": "%"}, {"measurement": "viability, T/C", "setting": "second compound 0.316 µM, first compound 0.001 µM", "result": 99.5, "unit": "%"}, {"measurement": "viability, T/C", "setting": "second compound 0.316 µM, first compound 0.00316 µM", "result": 89.2, "unit": "%"}, {"measurement": "viability, T/C", "setting": "second compound 0.316 µM, first compound 0.01 µM", "result": 90.2, "unit": "%"}, {"measurement": "viability, T/C", "setting": "[11]", "result": 86.4, "unit": "%"}, {"measurement": "viability, T/C", "setting": "[12]", "result": 72.3, "unit": "%"}, {"measurement": "viability, T/C", "setting": "second compound 1 µM, first compound 0.000316 µM", "result": 88.6, "unit": "%"}, {"measurement": "viability, T/C", "setting": "second compound 1 µM, first compound 0.001 µM", "result": 89.5, "unit": "%"}, {"measurement": "viability, T/C", "setting": "second compound 1 µM, first compound 0.00316 µM", "result": 92.8, "unit": "%"}, {"measurement": "viability, T/C", "setting": "second compound 1 µM, first compound 0.01 µM", "result": 80.2, "unit": "%"}, {"measurement": "viability, T/C", "setting": "[13]", "result": 81.9, "unit": "%"}, {"measurement": "viability, T/C", "setting": "[14]", "result": 70, "unit": "%"}, {"measurement": "viability, T/C", "setting": "second compound 3.16 µM, first compound 0.000316 µM", "result": 79.4, "unit": "%"}, {"measurement": "viability, T/C", "setting": "second compound 3.16 µM, first compound 0.001 µM", "result": 78, "unit": "%"}, {"measurement": "viability, T/C", "setting": "second compound 3.16 µM, first compound 0.00316 µM", "result": 79.5, "unit": "%"}, {"measurement": "viability, T/C", "setting": "second compound 3.16 µM, first compound 0.01 µM", "result": 70.8, "unit": "%"}, {"measurement": "viability, T/C", "setting": "[15]", "result": 77.9, "unit": "%"}, {"measurement": "viability, T/C", "setting": "[16]", "result": 61.2, "unit": "%"}, {"measurement": "viability, T/C", "setting": "second compound 10 µM, first compound 0.000316 µM", "result": 66.1, "unit": "%"}, {"measurement": "viability, T/C", "setting": "second compound 10 µM, first compound 0.001 µM", "result": 70.9, "unit": "%"}, {"measurement": "viability, T/C", "setting": "second compound 10 µM, first compound 0.00316 µM", "result": 69.8, "unit": "%"}, {"measurement": "viability, T/C", "setting": "second compound 10 µM, first compound 0.01 µM", "result": 71.9, "unit": "%"}, {"measurement": "viability, T/C", "setting": "[17]", "result": 64.3, "unit": "%"}, {"measurement": "viability, T/C", "setting": "[18]", "result": 59.2, "unit": "%"}]}, {"smiles": "C=CC(=O)N1CCN(c2nc(=O)n(-c3c(C)ccnc3C(C)C)c3nc(-c4c(O)cccc4F)c(F)cc23)C(C)C1", "note": "(stereo unspecified) + Cc1nc(NC(=O)N2CCCC2C(N)=O)sc1-c1ccnc(C(C)(C)C(F)(F)F)c1", "values": [{"measurement": "IC50", "setting": "[1]", "result": 4.01, "unit": "µM"}, {"measurement": "IC50", "setting": "[2]", "result": 3.48, "unit": "µM"}, {"measurement": "IC50", "setting": "[3]", "result": 2.63, "unit": "µM"}, {"measurement": "IC50", "setting": "[4]", "result": 1.91, "unit": "µM"}, {"measurement": "IC50", "setting": "[5]", "result": 1.33, "unit": "µM"}, {"measurement": "IC50", "setting": "[6]", "result": 0.502, "unit": "µM"}, {"measurement": "viability, T/C", "setting": "[7]", "result": 111, "unit": "%"}, {"measurement": "viability, T/C", "setting": "[8]", "result": 102, "unit": "%"}, {"measurement": "viability, T/C", "setting": "second compound 0.0316 µM, first compound 0.316 µM", "result": 97.3, "unit": "%"}, {"measurement": "viability, T/C", "setting": "second compound 0.0316 µM, first compound 1 µM", "result": 84.5, "unit": "%"}, {"measurement": "viability, T/C", "setting": "second compound 0.0316 µM, first compound 3.16 µM", "result": 52.8, "unit": "%"}, {"measurement": "viability, T/C", "setting": "second compound 0.0316 µM, first compound 10 µM", "result": 33.1, "unit": "%"}, {"measurement": "viability, T/C", "setting": "[9]", "result": 102, "unit": "%"}, {"measurement": "viability, T/C", "setting": "[10]", "result": 94, "unit": "%"}, {"measurement": "viability, T/C", "setting": "second compound 0.1 µM, first compound 0.316 µM", "result": 96.8, "unit": "%"}, {"measurement": "viability, T/C", "setting": "second compound 0.1 µM, first compound 1 µM", "result": 77.7, "unit": "%"}, {"measurement": "viability, T/C", "setting": "second compound 0.1 µM, first compound 3.16 µM", "result": 52.4, "unit": "%"}, {"measurement": "viability, T/C", "setting": "second compound 0.1 µM, first compound 10 µM", "result": 28.2, "unit": "%"}, {"measurement": "viability, T/C", "setting": "[11]", "result": 102, "unit": "%"}, {"measurement": "viability, T/C", "setting": "[12]", "result": 106, "unit": "%"}, {"measurement": "viability, T/C", "setting": "second compound 0.316 µM, first compound 0.316 µM", "result": 93.6, "unit": "%"}, {"measurement": "viability, T/C", "setting": "second compound 0.316 µM, first compound 1 µM", "result": 78.7, "unit": "%"}, {"measurement": "viability, T/C", "setting": "second compound 0.316 µM, first compound 3.16 µM", "result": 44, "unit": "%"}, {"measurement": "viability, T/C", "setting": "second compound 0.316 µM, first compound 10 µM", "result": 26.8, "unit": "%"}, {"measurement": "viability, T/C", "setting": "[13]", "result": 90.5, "unit": "%"}, {"measurement": "viability, T/C", "setting": "[14]", "result": 92.7, "unit": "%"}, {"measurement": "viability, T/C", "setting": "second compound 1 µM, first compound 0.316 µM", "result": 84.4, "unit": "%"}, {"measurement": "viability, T/C", "setting": "second compound 1 µM, first compound 1 µM", "result": 69, "unit": "%"}, {"measurement": "viability, T/C", "setting": "second compound 1 µM, first compound 3.16 µM", "result": 35.4, "unit": "%"}, {"measurement": "viability, T/C", "setting": "second compound 1 µM, first compound 10 µM", "result": 22.7, "unit": "%"}, {"measurement": "viability, T/C", "setting": "[15]", "result": 83.7, "unit": "%"}, {"measurement": "viability, T/C", "setting": "[16]", "result": 85, "unit": "%"}, {"measurement": "viability, T/C", "setting": "second compound 3.16 µM, first compound 0.316 µM", "result": 86.5, "unit": "%"}, {"measurement": "viability, T/C", "setting": "second compound 3.16 µM, first compound 1 µM", "result": 55.7, "unit": "%"}, {"measurement": "viability, T/C", "setting": "second compound 3.16 µM, first compound 3.16 µM", "result": 29.1, "unit": "%"}, {"measurement": "viability, T/C", "setting": "second compound 3.16 µM, first compound 10 µM", "result": 17.6, "unit": "%"}, {"measurement": "viability, T/C", "setting": "[17]", "result": 73.9, "unit": "%"}, {"measurement": "viability, T/C", "setting": "[18]", "result": 79.3, "unit": "%"}, {"measurement": "viability, T/C", "setting": "second compound 10 µM, first compound 0.316 µM", "result": 61.6, "unit": "%"}, {"measurement": "viability, T/C", "setting": "second compound 10 µM, first compound 1 µM", "result": 31.1, "unit": "%"}, {"measurement": "viability, T/C", "setting": "second compound 10 µM, first compound 3.16 µM", "result": 12.9, "unit": "%"}, {"measurement": "viability, T/C", "setting": "second compound 10 µM, first compound 10 µM", "result": 8.56, "unit": "%"}]}, {"smiles": "CC(Nc1ccc2c(c1)OCCn1cc(N3C(=O)OCC3C(F)F)nc1-2)C(N)=O", "note": "(stereo unspecified)", "values": [{"measurement": "viability, T/C", "setting": "compound 0.00316 µM", "result": "107% [middle of 8 runs]"}, {"measurement": "viability, T/C", "setting": "compound 0.01 µM", "result": "106% [middle of 8 runs]"}, {"measurement": "viability, T/C", "setting": "compound 0.0316 µM", "result": "106% [middle of 8 runs]"}, {"measurement": "viability, T/C", "setting": "compound 0.1 µM", "result": "105% [middle of 8 runs]"}, {"measurement": "viability, T/C", "setting": "compound 0.316 µM", "result": "105% [middle of 8 runs]"}, {"measurement": "viability, T/C", "setting": "compound 1 µM", "result": "92.3% [middle of 8 runs]"}, {"measurement": "IC50", "setting": "compound alone, run of 04/24/2023", "result": "> 1", "unit": "µM"}]}]}
